Data: ChEMBL document CHEMBL2346630 (J Med Chem, 2013)
One block for each compound: values may come before it.

Key:
Assay in all cases: biochemical
[1] = target: Cyclin-dependent kinase 7/ cyclin H (Homo sapiens, UniProt P50613)
[2] = target: Cyclin-dependent kinase 2/cyclin A (Homo sapiens, UniProt P24941)
[3] = target: CDK9/cyclin T1 (Homo sapiens, UniProt P50750)
[4] = target: Cyclin-dependent kinase 1/cyclin B1 (Homo sapiens, UniProt P06493)
Cyclin-dependent kinase 1/cyclin B1, sequence (P06493 whole entry): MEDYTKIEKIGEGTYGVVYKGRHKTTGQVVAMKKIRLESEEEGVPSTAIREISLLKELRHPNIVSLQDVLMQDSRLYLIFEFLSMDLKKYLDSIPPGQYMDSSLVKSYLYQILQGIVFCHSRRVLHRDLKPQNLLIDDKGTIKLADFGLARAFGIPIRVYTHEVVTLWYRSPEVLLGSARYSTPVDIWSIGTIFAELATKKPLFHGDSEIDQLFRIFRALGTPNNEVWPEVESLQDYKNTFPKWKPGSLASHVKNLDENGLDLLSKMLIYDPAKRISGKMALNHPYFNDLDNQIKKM
Cyclin-dependent kinase 1/cyclin B1, sequence (P14635 whole entry, further chain): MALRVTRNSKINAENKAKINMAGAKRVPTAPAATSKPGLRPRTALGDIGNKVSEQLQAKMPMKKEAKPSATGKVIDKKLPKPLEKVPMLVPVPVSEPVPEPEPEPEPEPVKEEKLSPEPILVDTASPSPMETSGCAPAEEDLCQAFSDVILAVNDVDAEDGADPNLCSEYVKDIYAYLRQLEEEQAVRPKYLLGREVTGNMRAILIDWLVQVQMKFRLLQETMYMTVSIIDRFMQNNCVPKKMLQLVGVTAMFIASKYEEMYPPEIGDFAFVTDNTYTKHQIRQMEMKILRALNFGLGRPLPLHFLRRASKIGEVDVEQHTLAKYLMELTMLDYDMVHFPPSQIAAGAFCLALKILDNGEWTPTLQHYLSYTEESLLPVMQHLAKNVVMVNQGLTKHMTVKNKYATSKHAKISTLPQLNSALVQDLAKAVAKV

Cyclin-dependent kinase 7/ cyclin H, sequence (P51946 whole entry): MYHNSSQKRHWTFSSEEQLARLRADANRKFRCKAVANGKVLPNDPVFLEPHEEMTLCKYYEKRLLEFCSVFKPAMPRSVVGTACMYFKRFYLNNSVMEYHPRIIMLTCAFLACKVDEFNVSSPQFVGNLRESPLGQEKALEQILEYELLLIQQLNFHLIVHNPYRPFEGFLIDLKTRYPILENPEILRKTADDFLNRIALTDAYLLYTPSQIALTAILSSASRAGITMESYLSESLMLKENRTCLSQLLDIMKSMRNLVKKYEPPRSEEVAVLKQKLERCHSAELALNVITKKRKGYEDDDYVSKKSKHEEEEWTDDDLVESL
Cyclin-dependent kinase 7/ cyclin H, sequence (P50613 whole entry): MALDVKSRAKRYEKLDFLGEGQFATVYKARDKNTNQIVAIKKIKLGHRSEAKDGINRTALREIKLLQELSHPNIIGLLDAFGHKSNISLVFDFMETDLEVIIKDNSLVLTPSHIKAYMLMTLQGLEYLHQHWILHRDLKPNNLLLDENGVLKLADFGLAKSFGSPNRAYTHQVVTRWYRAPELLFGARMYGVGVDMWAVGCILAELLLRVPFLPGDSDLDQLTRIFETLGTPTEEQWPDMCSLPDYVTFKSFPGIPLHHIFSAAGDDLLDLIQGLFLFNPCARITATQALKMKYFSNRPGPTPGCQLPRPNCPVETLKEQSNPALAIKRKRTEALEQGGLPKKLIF
CDK9/cyclin T1, sequence (O60563 whole entry): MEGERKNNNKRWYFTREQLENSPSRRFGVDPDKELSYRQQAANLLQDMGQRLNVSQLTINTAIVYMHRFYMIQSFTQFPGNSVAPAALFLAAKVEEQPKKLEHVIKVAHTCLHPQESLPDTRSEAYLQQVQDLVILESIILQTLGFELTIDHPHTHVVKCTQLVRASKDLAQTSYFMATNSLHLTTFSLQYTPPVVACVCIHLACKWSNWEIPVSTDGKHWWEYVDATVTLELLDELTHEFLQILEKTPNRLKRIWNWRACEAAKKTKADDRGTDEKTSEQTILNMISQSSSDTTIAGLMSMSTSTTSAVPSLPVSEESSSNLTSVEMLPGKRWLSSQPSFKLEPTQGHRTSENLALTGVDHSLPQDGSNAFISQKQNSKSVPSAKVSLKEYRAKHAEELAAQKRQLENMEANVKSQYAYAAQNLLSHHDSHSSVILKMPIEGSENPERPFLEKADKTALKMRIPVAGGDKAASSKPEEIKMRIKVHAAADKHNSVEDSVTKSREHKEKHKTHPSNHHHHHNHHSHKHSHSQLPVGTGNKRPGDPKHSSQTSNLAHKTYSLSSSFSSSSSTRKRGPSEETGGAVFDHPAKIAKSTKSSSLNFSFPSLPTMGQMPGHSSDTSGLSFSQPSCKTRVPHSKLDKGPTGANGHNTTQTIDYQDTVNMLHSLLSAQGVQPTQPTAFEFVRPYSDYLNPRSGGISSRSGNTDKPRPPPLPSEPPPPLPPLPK
CDK9/cyclin T1, sequence (P50750 whole entry): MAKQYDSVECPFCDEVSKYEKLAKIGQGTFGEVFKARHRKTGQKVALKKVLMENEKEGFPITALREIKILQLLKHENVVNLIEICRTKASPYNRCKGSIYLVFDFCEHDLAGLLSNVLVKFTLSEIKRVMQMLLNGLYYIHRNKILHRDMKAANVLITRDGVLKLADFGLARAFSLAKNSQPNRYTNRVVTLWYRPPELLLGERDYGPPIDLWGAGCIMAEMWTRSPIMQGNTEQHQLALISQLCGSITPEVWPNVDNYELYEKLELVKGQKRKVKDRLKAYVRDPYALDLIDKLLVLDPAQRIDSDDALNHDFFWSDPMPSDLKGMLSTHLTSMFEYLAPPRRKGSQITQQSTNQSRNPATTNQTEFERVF

SMILES: CNc1nc(C)c(-c2nc(Nc3cccc(S(N)(=O)=O)c3)ncc2C)s1
Ki [1]: 1180 nM | Ki [2]: 34 nM | Ki [3]: 5 nM

SMILES: CNc1nc(C)c(-c2ccnc(Nc3cccc([N+](=O)[O-])c3)n2)s1
Ki [1]: 417 nM | Ki [4]: 5 nM | Ki [2]: 3 nM | Ki [3]: 2 nM

SMILES: CNc1nc(C)c(-c2nc(Nc3cccc(N4CCCNCC4)c3)ncc2F)s1
Ki [1]: 111 nM | Ki [4]: 47 nM | Ki [2]: 85 nM | Ki [3]: 5 nM

SMILES: CCc1cnc(Nc2cccc(S(N)(=O)=O)c2)nc1-c1sc(NC)nc1C
Ki [1]: 1280 nM | Ki [4]: 788 nM | Ki [2]: 845 nM | Ki [3]: 98 nM

SMILES: CNc1ncc(-c2ccnc(Nc3cccc(S(N)(=O)=O)c3)n2)s1
Ki [1]: 40 nM | Ki [4]: 4 nM | Ki [2]: 5 nM | Ki [3]: 3 nM

Ki [1]: 685 nM | Ki [3]: 11 nM
SMILES: CNc1nc(C)c(-c2nc(Nc3cccc(S(N)(=O)=O)c3)ncc2Cl)s1

SMILES: CNc1nc(C)c(-c2nc(Nc3cccc(N4CCNCC4)c3)ncc2F)s1
Ki [1]: 193 nM | Ki [4]: 24 nM | Ki [2]: 20 nM | Ki [3]: 4 nM

SMILES: CNc1nc(C)c(-c2nc(Nc3ccc(N4CCNCC4)cc3)ncc2C#N)s1
Ki [1]: 71 nM | Ki [4]: 79 nM | Ki [2]: 39 nM | Ki [3]: 6 nM

SMILES: CNc1nc(C)c(-c2ccnc(Nc3cccc(S(N)(=O)=O)c3)n2)s1
Ki [1]: 1960 nM | Ki [4]: 6 nM | Ki [2]: 4 nM | Ki [3]: 2 nM

SMILES: CNc1nc(C2CC2)c(-c2ccnc(Nc3cccc(S(N)(=O)=O)c3)n2)s1
Ki [1]: 273 nM | Ki [4]: 18 nM | Ki [2]: 2 nM | Ki [3]: 16 nM

SMILES: CNc1nc(C(F)(F)F)c(-c2ccnc(Nc3cccc(S(N)(=O)=O)c3)n2)s1
Ki [1]: 47 nM | Ki [4]: 1.5 nM | Ki [2]: 2 nM | Ki [3]: 2 nM

SMILES: CNc1nc(-c2ccccc2)c(-c2ccnc(Nc3cccc([N+](=O)[O-])c3)n2)s1
Ki [1]: > 5000 nM | Ki [4]: > 5000 nM | Ki [3]: > 5000 nM

SMILES: CNc1nc(C2CC2)c(-c2ccnc(Nc3ccc(S(N)(=O)=O)cc3)n2)s1
Ki [1]: 255 nM | Ki [4]: 2 nM | Ki [2]: 13 nM | Ki [3]: 8 nM

SMILES: CNc1nc(C)c(-c2nc(Nc3cccc(S(N)(=O)=O)c3)ncc2O)s1
Ki [1]: > 5000 nM | Ki [4]: > 5000 nM | Ki [2]: > 5000 nM | Ki [3]: > 5000 nM

Ki [1]: 54 nM
SMILES: CNc1ncc(-c2ccnc(Nc3ccc(S(N)(=O)=O)cc3)n2)s1

SMILES: CNc1nc(C)c(-c2ccnc(Nc3cccc(N4CCCNCC4)c3)n2)s1
Ki [1]: 433 nM | Ki [4]: 195 nM | Ki [2]: 320 nM | Ki [3]: 19 nM

SMILES: CNc1nc(CC(F)(F)F)c(-c2ccnc(Nc3ccc(O)cc3)n2)s1
Ki [1]: 1540 nM | Ki [4]: 334 nM | Ki [2]: 347 nM | Ki [3]: 278 nM

SMILES: CNc1nc(C)c(-c2nc(Nc3cccc(N4CCNCC4)c3)ncc2C#N)s1
Ki [1]: 68 nM | Ki [4]: 42 nM | Ki [2]: 56 nM | Ki [3]: 5 nM

SMILES: CCCc1cnc(Nc2cccc(S(N)(=O)=O)c2)nc1-c1sc(NC)nc1C
Ki [2]: > 5000 nM | Ki [3]: > 5000 nM

SMILES: CNc1nc(CC(F)(F)F)c(-c2ccnc(Nc3cccc(S(N)(=O)=O)c3)n2)s1
Ki [1]: 1980 nM | Ki [4]: 154 nM | Ki [2]: 226 nM | Ki [3]: 156 nM

SMILES: CNc1nc(C)c(-c2nc(Nc3cccc(N4CCN(C(C)=O)CC4)c3)ncc2F)s1
Ki [1]: 302 nM | Ki [4]: 26 nM | Ki [2]: 42 nM | Ki [3]: 7 nM

SMILES: CNc1nc(C)c(-c2nc(Nc3cccc(N4CCOCC4)c3)ncc2F)s1
Ki [1]: 473 nM | Ki [4]: 18 nM | Ki [2]: 20 nM | Ki [3]: 3 nM

SMILES: CNc1nc(CC(F)(F)F)c(-c2ccnc(Nc3cccc(O)c3)n2)s1
Ki [1]: 3470 nM | Ki [4]: 556 nM | Ki [2]: 282 nM | Ki [3]: 245 nM

SMILES: CNc1nc(C(F)(F)F)c(-c2ccnc(Nc3ccc(S(N)(=O)=O)cc3)n2)s1
Ki [1]: 64 nM | Ki [4]: 0.5 nM | Ki [2]: 1.5 nM | Ki [3]: 3 nM

SMILES: CNc1nc(C)c(-c2nc(Nc3ccc(N4CCN(C(C)=O)CC4)cc3)ncc2C#N)s1
Ki [1]: 316 nM | Ki [4]: 45 nM | Ki [2]: 26 nM | Ki [3]: 22 nM

SMILES: CNc1nc(C)c(-c2nc(Nc3cccc(N4CCN(C(C)=O)CC4)c3)ncc2C#N)s1
Ki [1]: 92 nM | Ki [4]: 43 nM | Ki [2]: 43 nM | Ki [3]: 7 nM

SMILES: CNc1nc(C)c(-c2nc(Nc3cccc(N4CCNCC4)c3)ncc2Cl)s1
Ki [1]: 155 nM | Ki [4]: 88 nM | Ki [2]: 45 nM | Ki [3]: 4 nM

SMILES: CNc1nc(CC(F)(F)F)c(-c2ccnc(Nc3cccc([N+](=O)[O-])c3)n2)s1
Ki [1]: > 5000 nM | Ki [4]: > 5000 nM | Ki [2]: > 5000 nM | Ki [3]: 134 nM

SMILES: CNc1nc(C2CC2)c(-c2ccnc(Nc3cccc(N4CCCNCC4)c3)n2)s1
Ki [1]: 464 nM | Ki [4]: 176 nM | Ki [2]: 326 nM | Ki [3]: 66 nM

SMILES: CNc1nc(C)c(-c2nc(Nc3cccc([N+](=O)[O-])c3)ncc2O)s1
Ki [1]: > 5000 nM | Ki [4]: 1420 nM | Ki [2]: > 5000 nM | Ki [3]: 932 nM

SMILES: CNc1nc(C)c(-c2nc(Nc3cccc(N4CCCCC4)c3)ncc2C#N)s1
Ki [1]: 286 nM | Ki [4]: 35 nM | Ki [2]: 42 nM | Ki [3]: 9 nM
